This is an account of results in patent publication US6340670B1, “Acetal benzylmaltosides as inhibitors of smooth muscle cell proliferation” (American Home Products Corporation, priority 1998, dated 2002).

One assay has as its system Porcine Smooth Muscle Cell. The experiment in a line: Effects of Compounds on Cell Proliferation Using 3H Thymidine Incorporation. Format: cell-based. The following applies: @ 50 μM, control (100%) = maximally stimulated cells. How it is done:
Effects of Compounds on Cell Proliferation Using ^3H Thymidine Incorporation
Human and porcine smooth muscle cells were tested in early passage (generally passage 3-7) at sub-confluent conditions. Cultures were grown in 16 mm (24 well) multi-well culture dishes in medium 199 supplemented with 10% fetal bovine serum and 2% antibiotic/antimycotic. At sub-confluence, the cells were placed in a defined serum free medium (AIM-V; Gibco) for 24-48 h prior to initiating the experimental protocol.
Compounds were added to each well at 50 fold dilution (20 μL/well) and the plates were incubated for 24-36 h at 37° C. in 5% CO2. Compounds were initially dissolved in 50% ethanol and serially diluted into media. Compounds were routinely evaluated at concentrations from 1 to 100 μM. As a control, grade II porcine intestinal mucosal heparin (sodium salt) was routinely evaluated in all cell preparations at concentrations from 0.1 to 100 μg/mL.
At the completion of the test procedure, plates were placed on ice, washed three times with ice cold phosphate buffered saline (PBS) and incubated in ice cold 10% trichloroacetic acid (TCA) got 30 min to remove acid soluble proteins. Solution was transferred to scintillation vials containing 0.4 N HCl (500 μL/vial to neutralize NaOH) and each well was rinsed two times with water (500 μL) for a total volume of 2 mL/vial.
Data was obtained, in triplicate, for both control and experimental samples. Control (100%) data was obtained from maximally stimulated cells, as the result of growth factor or serum stimulation. Experimental data was obtained from cells maximally stimulated with growth factor or serum and treated with compound. Data are expressed as an IC50 or percent inhibition in Table I below.
Background: Incorporation of labelled thymidine or its analogues reports DNA synthesis.
On to `CCC1OCC2OC(OC3C(CO)OC(OCc4ccc(Cl)c(NC(C)=O)c4)C(O)C3O)C(O)C(O)C2O1` [Example 4, N-{2-Chloro-5-[(4′,6′-O-propylidene-β-D-maltosyl)-oxy-methyl]-pheny}-acetamide], for which the “Porcine Smooth Muscle Cell Antiproliferation, percent inhibition” value was 16% @ 50.
`CC(=O)Nc1cc(COC2OC(CO)C(OC3OC4COC(CCC#N)OC4C(O)C3O)C(O)C2O)ccc1Cl` [Example 18, N-{2-Chloro-5[-(4′,6′-O-((1R)-3-cyano-propylidene)-β-D-maltosyloxy)-methyl]-phenyl}-acetamide]: the “Porcine Smooth Muscle Cell Antiproliferation, percent inhibition” value worked out at 43% @ 50.
Regarding `CS(=O)(=O)Nc1cc(COC2OC(CO)C(OC3OC4COC(c5ccccc5)OC4C(O)C3O)C(O)C2O)ccc1Cl` [Example 83, N-{5-[(4′,6′-O-Benzylidene-β-D-maltosyl)-oxy-methyl]-2-chloro-phenyl}-methanesulfonamide], the “Porcine Smooth Muscle Cell Antiproliferation, percent inhibition” value stood at 18% @ 50.

The assay is the same for the next values; noted with them: @ 100 μM, control (100%) = maximally stimulated cells.
As for `CC(=O)Nc1cc(COC2OC(CO)C(OC3OC4COC(C)OC4C(O)C3O)C(O)C2O)ccc1Cl` [Example 1, N-{2-Chloro-5-[(4′,6′-O-ethylidene)-β-D-maltosyloxymethyl]-phenyl}-acetamide], the “Porcine Smooth Muscle Cell Antiproliferation, percent inhibition” value is given as 32% @ 100.

The same assay, now with this note: serum/growth factor stimulated cells, 24-36 h incubation, read-out: Porcine Smooth Muscle Cell Antiproliferation IC50.
On to `O=C(Nc1cc(COC2OC(COC(=O)c3cccc(I)c3)C(OC3OC4COC(c5ccccc5)OC4C(O)C3O)C(O)C2O)ccc1Cl)c1ccc(C(=O)c2ccccc2)cc1` [Example 73, 4-Benzoyl-N-{5-[(4′,6′-O-benzylidene-6-O-(3-iodo-benzoyl)-β-D-maltosyl)-oxy-methyl]-2-chloro-phenyl}-benzamide], for which the IC50 is 132 nM.
Take `CC(=O)Nc1cc(COC2OC(COC(=O)c3ccccc3)C(OC3OC4COC(CCC#N)OC4C(O)C3O)C(O)C2O)ccc1Cl` [Example 19, N-{5-{[6-O-Benzoyl-4′,6′-O-((1R)-3-cyanopropylidene)-β-D-maltosyloxy]-methyl}-2-chloro-phenyl}-acetamide]: the IC50 worked out at 1 nM.
Still for that read-out and setting: the same measure for `CC(=O)Nc1cc(COC2OC(COC(=O)c3ccccc3)C(OC3OC4COC(c5ccccc5)OC4C(O)C3O)C(O)C2O)ccc1C` [Example 85, N-{5-[(6-O-Benzoyl-4′,6′-O-benzylidene-β-D-maltosyl)-oxy-methyl]-2-methyl-phenyl}-acetamide]: 418 nM; for `O=C(OCC1OC(OCc2ccc(Cl)c([N+](=O)[O-])c2)C(O)C(O)C1OC1OC2COC(c3ccccc3)OC2C(O)C1O)c1ccccc1` [Example 30, 4-Chloro-3-nitro-benzyl-6-O-benzoyl-4′,6′-O-benyzlidene-β-D-maltoside]: 351 nM; for `CC(=O)Nc1cc(CO[C@@H]2O[C@H](COC(=O)c3ccccc3)[C@@H](O[C@H]3O[C@@H]4COC(c5ccccc5)O[C@H]4[C@H](O)[C@H]3O)[C@H](O)[C@H]2O)ccc1Cl` (stereo partly drawn) [Example 26, N-{5-[(6-O-Benzoyl-4′,6′-O-benzylidene-β-D-maltosyl-oxy)-methyl]-2-chloro-phenyl}-acetamide]: 10 to 30 nM.
Take `C[C@H](N)C(=O)Nc1cc(CO[C@@H]2O[C@H](COC(=O)c3ccccc3)[C@@H](O[C@H]3O[C@@H]4COC(c5ccccc5)O[C@H]4[C@H](O)[C@H]3O)[C@H](O)[C@H]2O)ccc1Cl` (stereo partly drawn) [Example 77, N′-{5-[(6-O-benzoyl-4′,6′-O-benzylidene-β-D-maltosyl)-oxy-methyl]-2-chloro-phenyl}-L-alaninamide]: the IC50 turned out to be 81 nM.
The same measure, in the same setting: next, `O=C(OCC1OC(OCc2ccc(Cl)cc2)C(O)C(O)C1OC1OC2COC(c3ccccc3)OC2C(O)C1O)c1ccccc1` [Example 69, Benzoic acid 1-O-(4-chloro)-benzyl-4′,6′-O-benzylidene-6-deoxy-β-D-malto-6-yl ester]: 1530 nM.
In the case of `CC(=O)Nc1cc(COC2OC(COS(=O)(=O)c3ccc(C)cc3)C(OC3OC4COC(c5ccccc5)OC4C(O)C3O)C(O)C2O)ccc1C` [Example 59, N-(5-{[4′,6′-O-Benzylidene-6-O-(4-toluenesulfonyl)-β-D-maltosyl]-oxy-methyl}-2-methyl-phenyl)-acetamide], the IC50 stood at 490 nM.
On the same count and under the same terms, the same measure for `CC(NC(=O)OCC1c2ccccc2-c2ccccc21)C(=O)Nc1cc(COC2OC(CO)C(OC3OC4COC(c5ccccc5)OC4C(O)C3O)C(O)C2O)ccc1Cl` [Example 75, (1-{5-[(4′,6′-O-Benzylidene-β-D-maltosyl)-oxy-methyl]-2-chloro-phenyl-carbamoyl}ethyl)-carbamic acid 9H-fluoren-9ylmethyl ester]: 4690 nM.
`CC(=O)Nc1cc(COC2OC(COC(=O)c3ccccc3)C(OC3OC4COC(C(C)C)OC4C(O)C3O)C(O)C2O)ccc1Cl` [Example 15, N-{5-[(6-O-Benzoyl-4′,6′-O-isobutylidene-β-D-maltosyl)-oxy-methyl]-2-chloro-phenyl}-acetamide]: the IC50 turned out to be 3 nM.
On the same count and under the same terms, the same measure for `CC(=O)Nc1cc(COC2OC(COC(=O)c3ccccc3)C(OC3OC4COC(Cc5ccccc5)OC4C(O)C3O)C(O)C2O)ccc1Cl` [Example 17, N-{5-[(6-O-Benzoyl-4′,6′-O-((1R)-2-phenyl-ethylidene)-β-D-maltosyloxy)-methyl]-2-chloro-phenyl}-acetamide]: 35 nM; for `CC(=O)Nc1cc(COC2OC(COC(=O)Cc3ccccc3)C(OC3OC4COC(c5ccccc5)OC4C(O)C3O)C(O)C2O)ccc1Cl` [Example 46, (R)-N-[-2-Chloro-5-[[[6-O-(phenylacetyl)-4-O-[4,6-O-(phenylmethylene)-α-D-glucopyranosyl]-β-D-glucopyranosyl]oxy]methyl]phenyl]acetamide]: 32 nM; for `O=C(OCC1OC(OCc2ccc(Cl)c(NC(=O)c3ccco3)c2)C(O)C(O)C1OC1OC2COC(c3ccccc3)OC2C(O)C1O)c1ccccc1` [Example 64, Furan-2-carboxylic acid {5-[(6-O-benzoyl-4′,6′-O-benzylidene-β-D-maltosyl)-oxy-methyl]-2-chloro-phenyl}-amide]: 50 nM.
On the same count and under the same terms, the same measure for `COC(=O)Nc1cc(COC2OC(CO)C(OC3OC4COC(c5ccccc5)OC4C(O)C3O)C(O)C2O)ccc1Cl` [Example 80, N-{5-[(4′,6′-O-Benzylidene-β-D-maltosyl)-oxy-methyl]-2-chloro-phenyl}-carbamic acid methyl ester]: 7570 nM; for `CC(=O)OC1C(OC2C(COC(=O)c3ccccc3)OC(OCc3ccc(Cl)c([N+](=O)[O-])c3)C(OC(C)=O)C2OC(C)=O)OC2COC(c3ccccc3)OC2C1OC(C)=O` [Example 31, (R)-(4-Chloro-3-nitrophenyl)methyl-2,3-di-O-acetyl-6-O-benzoyl-4-O-[2,3-di-O-acetyl-4,6-O-(phenylmethylene)-α-D-glucopyranosyl]-β-D-glucopyranoside]: 380 nM; for `CC(=O)Nc1cc(COC2OC(COC(=O)c3ccccc3)C(OC3OC4COC(c5ccccc5)OC4C(O)C3O)C(O)C2O)ccc1C#N` [Example 84, N-{5-[(6-O-Benzoyl-4′,6′-O-benzylidene-β-D-maltosyl)-oxy-methyl]-2-cyano-phenyl}-acetamide]: 250 nM.
As for `CC(=O)OC1C(OC2C(COC(=O)c3cccnc3)OC(OCc3ccc(Cl)c([N+](=O)[O-])c3)C(OC(C)=O)C2OC(C)=O)OC2COC(c3ccccc3)OC2C1OC(C)=O` [Example 33, (R)-(4-Chloro-3-nitrophenyl)methyl 4-[2,3-di-O-acetyl-4,6-O-(phenylmethylene)-α-D-glucopyranosyl]-β-D-glucopyranoside 2,3-diacetate 6-(3-pyridinecarboxylate)], the IC50 stood at 312 nM.
Take “N-{5-[(6-O-(3-Benzyl-1-oxo-propyl)-4′,6′-O-benzylidene-β-D-maltosyl)-oxy-methyl]-2-chloro-phenyl}-carbamic acid methyl ester [Example 82]”: the IC50 worked out at 352 nM.
In the case of `CC(=O)Nc1cc(COC2OC(CO)C(OC3OC4COC(c5ccc([N+](=O)[O-])cc5)OC4C(O)C3O)C(O)C2O)ccc1Cl` [Example 10, N-(2-Chloro-5-{[4′,6′-O-(4-nitro)-benzylidene-β-D-maltosyl]-oxy-methyl}-phenyl)-acetamide], the IC50 was 19200 nM.
In the case of `COC(=O)CCCC(=O)OCC1OC(OCc2ccc(Cl)c(NC(C)=O)c2)C(O)C(O)C1OC1OC2COC(c3ccccc3)OC2C(O)C1O` [Example 28, (R)-N-[2-Chloro-5-[[[6-O-(5-methoxy-1,5-dioxopentyl)-4-O-[4,6-O-(phenylmethylene)-α-D-glucopyranoysl]-β-D-gluconyranosyl]oxy]methyl]-phenyl]acetamide], the IC50 is 400 nM.
On the same count and under the same terms, the same measure for `CC(=O)Nc1cc(COC2OC(COC(C)=O)C(OC3OC4COC(c5ccccc5)OC4C(OC(C)=O)C3OC(C)=O)C(OC(C)=O)C2OC(C)=O)ccc1Cl` [Example 25, N-{5-[(4′,6′-O-Benzylidene-2,2′,3,3′,6-penta-O-acetyl-β-D-maltosyl-oxy)-methyl]-2-chloro-phenyl}-acetamide]: 700 nM; for `CC(=O)Nc1cc(CO[C@@H]2O[C@H](COC(=O)CCc3ccccc3)[C@@H](O[C@H]3O[C@@H]4COC(c5ccccc5)O[C@H]4[C@H](O)[C@H]3O)[C@H](O)[C@H]2O)ccc1Cl` (stereo partly drawn) [Example 48, N-{5-[(4′,6′-O-Benzylidene-6-O-phenyl-ethyl-carboxyl-β-D-maltosyl)-oxy-methyl]-2-chloro-phenyl}-acetamide]: 7 nM.
